The values that follow are results of earlier work, collected in patent US20040202640A1, “Method for topical treatment of scars with rotein Kinase C inhibitors” (priority 2003, published 2004).

In one data set the target is calmodulin (CaM) (Homo sapiens, UniProt P0DP23).
Data set [1] deals with phorbol ester induced omithine decarboxylase activity. Conditions: mouse skin.

`CCCCCCCCCCCCC/C=C/[C@@H](O)[C@@H](N)CO` [Sphingosine]: the PKC inhibition result in the data set with PKC is listed as “dose-dependently inhibits PKC”. On calmodulin (CaM), the CaM function entry is listed as “inhibits CaM function”. Also, the “phorbol ester induced omithine decarboxylase activity” value in data set [1] is listed as “inhibit”.
Consider `CCCCCCCCCCCCC/C=C/[C@@H](O)[C@@H](N)COP(=O)(O)O` [sphingosingosine-1-phosphate, sphingosine-1 phosphate], for which the PKC inhibition result in the data set on PKC is given as “more effective PKC inhibitor than sphingosine”.
